Patent publication US6849596B1, “Regulatory/unfolding peptides of ezrin” (priority 1999, dated 2005)
Entries after “also recorded” stand apart in the source; their conditions may differ.

Assays:
[1] = tested on: IgG serum antibody response to Ovalbumin; assay: Adjuvant activity: IgG serum antibody response to Ovalbumin in mice; type: in vivo; settings: for IgG response recorded as OD: 50 micrograms Ovalbumin, two weeks, sera 1 to 100; for IgG response recorded as OD then rebased relative to 100 for each control: control = 100
Experimental: Adjuvant Activity of Hepreceptor Peptides Enhancing the IgG Serum Antibody Response to Ovalbumin in Mice
The IgG response in mice two weeks after an injection of 50 micrograms of Ovalbumin plus various concentrations of different hepreceptor peptides was determined. IgG response was measured by Optical Density (OD) of a 1 to 100 dilution of mouse sera in the presence of Ovalbumin.
IgG response recorded as OD
IgG response recorded as OD then data rebased relative to 100 for each control

[2] = tested on: transplanted sarcoma of the uterus SM-322; assay: Transplanted mouse sarcoma SM-322 model; type: in vivo, CBA mice; settings: control 12-16
[3] = tested on: transplanted cervical cancer CUC-5; assay: Transplanted mouse cervical cancer model CUC-5; type: in vivo, CBA mice; settings: for Percent decrease in tumour volume relative to control / Days of life expectancy: CUC-5; for Days of life expectancy: control 47-76
Description: Anticancer Activity of Hepreceptor Peptides on the Growth of Transplanted Sarcoma of the Uterus SM-322 and on Cancer of the Uterine Cervix CUS-5 Performed in CBA Mice Using Rupe312 and Rupe414 as Examples
Transplanted mouse cervical cancer model CUC-5 (epithelial tumour)
Primary tumours were induced in female mice using methylcholantrene. A few primary turnouts were then auto-transplanted into the uterine cervix. The life expectancy of mice with transplanted tumours was 43 days.
CBA female mice weighed 21.4=/−1.2 g. and were 2-3 months old. The tumours were introduced as a 0.5 ml of tumour suspension (1 g tumour per 10 ml of Igla medium) and ten mice used in each treatment group.
Lyophylised peptide were dissolved in sterile physiological saline immediately before use in three concentrations. 0.5 ml of solution was injected twice weekly into the peritoneum of the mice for the duration of the experiment. Three different concentrations of peptide were used leading to three final doses per injection per mouse of 10, 1.0 and 0.1 micrograms.
The average percent decrease of tumour volume relative to the control group was recorded at three time points. The longevity of the mice in the treatment groups and control groups was compared and the histology of the tumours between control and treatment groups was compared.

[4] = tested on: human Peripheral Blood Mononuclear Cells; assay: In vitro activation of human PBMC, tritiated thymidine incorporation; type: cell-based; settings: for incorporation of 3H thymidine: three days, Control 370
Experimental: Peripheral Blood Mononuclear Cells (PBMC) were separated from the peripheral blood of a […] donor using the standard method of fractionation in a ficoll gradient. The PBMC were suspended in culture medium containing RPMI1640 medium plus 10% fetal calf serum, 1 mM L-glutamin and antibiotics (BM). The cell suspension was placed in wells of a 96 hole microwell plate for cell cultivation, (100 microliters of suspension containing 100,000 cells per well). […] The negative control well contained BM but no peptide. The plate was incubated at 37° C. for three days then radioactive ^3H thymidine was added to a final concentration of 1 microcurie per ml. The incorporation of ^3H thymidine into the DNA of the cells was measured using a betacounter using standard procedures. The experiment was repeated twice and the results expressed as an average of the two experiments in radioactive counts per minute.

[5] = tested on: HLA Class I on human White Blood Cells; assay: Expression of MHC (HLA) Class I on human White Blood Cells; type: cell-based; settings: 0.003 micrograms per ml
Description: A cell specific effect of this activation was an increase in the population of monocytes expressing MHC Class I and a decrease in the population of CD8 lymphocytes expressing MHC Class I.

[6] = tested on: transplanted sarcoma of the uterus SM-322; assay: Transplanted mouse sarcoma SM-322 model; type: in vivo, CBA mice; settings: for Percent decrease in tumour volume relative to control: SM-322
Description: Anticancer Activity of Hepreceptor Peptides on the Growth of Transplanted Sarcoma of the Uterus SM-322 and on Cancer of the Uterine Cervix CUS-5 Performed in CBA Mice Using Rupe312 and Rupe414 as Examples Transplanted mouse sarcoma SM-322 model (endothelial tumour). Primary tumours of the uterus were induced in female mice using 1.2 dimethylhydrazine. A few primary tumours were transplanted into syngeneic mice. The first visible nodules started to appear at the point of transplation after 4 days. The life expectancy of the mice with transplanted tumours was 22-24 days. […] The tumours were introduced as a 0.5 ml of tumour suspension (1 g tumour per 10 ml of Igla medium) and ten mice used in each treatment group. […] The average percent decrease of tumour volume relative to the control group was recorded at three time points. The longevity of the mice in the treatment groups and control groups was compared and the histology of the tumours between control and treatment groups was compared.

[7] = IP injection 0.01 micrograms per mouse
[8] = IP injection 0.1 micrograms per mouse
[9] = IP injection 1 microgram per mouse
[10] = IP injection 10 micrograms per mouse
[11] = 0.1 Microg/mouse IP twice weekly
[12] = 10 Microg/mouse IP twice weekly
[13] = 0.1 Microg/mouse IP twice weekly, Day 8
[14] = 0.1 Microg/mouse IP twice weekly, Day 12
[15] = 1 Microg/mouse IP twice weekly, Day 8
[16] = 1 Microg/mouse IP twice weekly, Day 12
[17] = 10 Microg/mouse IP twice weekly, Day 8
[18] = 10 Microg/mouse IP twice weekly, Day 12

KKRRETVERE (Hepreceptor peptide) [Rupe312]
IgG response recorded as OD [1, 7]: 0.68 OD | IgG response recorded as OD then rebased relative to 100 for each control [1, 7]: 99 | IgG response recorded as OD [1, 8]: 0.88 OD | IgG response recorded as OD then rebased relative to 100 for each control [1, 8]: 128 | IgG response recorded as OD [1, 9]: 0.55 OD | IgG response recorded as OD then rebased relative to 100 for each control [1, 9]: 80 | IgG response recorded as OD [1, 10]: 0.44 OD | IgG response recorded as OD then rebased relative to 100 for each control [1, 10]: 64 | Days of life expectancy [2, 11]: 12 to 22 days | Days of life expectancy ([2]; 1 Microg/mouse IP twice weekly): 12 to 19 days | Days of life expectancy [2, 12]: 12 to 27 days | Percent decrease in tumour volume relative to control [3, 13]: 50% | Percent decrease in tumour volume relative to control [3, 14]: 18% | Percent decrease in tumour volume relative to control ([3]; 0.1 Microg/mouse IP twice weekly, Day 19): 45% | Days of life expectancy [3, 11]: 42 to 76 days | Percent decrease in tumour volume relative to control [3, 15]: 50% | Percent decrease in tumour volume relative to control [3, 16]: 26% | Percent decrease in tumour volume relative to control ([3]; 1 Microg/mouse IP twice weekly, Day 19): 49% | Days of life expectancy ([3]; 1 Microg/mouse IP twice weekly): 47 to 76 days | Percent decrease in tumour volume relative to control [3, 17]: 50% | Percent decrease in tumour volume relative to control [3, 18]: 25% | Percent decrease in tumour volume relative to control ([3]; 10 Microg/mouse IP twice weekly, Day 19): 49% | Days of life expectancy [3, 12]: 48 to 76 days | change in life expectancy ([3]; slower growing transplanted cervical cancer): no significant increase (or decrease) in life expectancy was detected | activity relative to HEP1 ([4]; PBMC activation, thymidine incorporation): significantly more active than HEP1; also recorded: ten fold higher activity than HEP1 | concentration of peak activity ([4]; PBMC proliferation): around 3 nanograms/ml | incorporation of 3H thymidine ([4]; Peptide 0.0001 micro g/ml): 563 radioactive counts per minute | incorporation of 3H thymidine ([4]; Peptide 0.0003 micro g/ml): 742 radioactive counts per minute | incorporation of 3H thymidine ([4]; Peptide 0.001 micro g/ml): 976 radioactive counts per minute | incorporation of 3H thymidine ([4]; Peptide 0.003 micro g/ml): 3222 radioactive counts per minute | incorporation of 3H thymidine ([4]; Peptide 0.01 micro g/ml): 656 radioactive counts per minute | incorporation of 3H thymidine ([4]; Peptide 0.03 micro g/ml): 539 radioactive counts per minute | incorporation of 3H thymidine ([4]; Peptide 0.1 micro g/ml): 533 radioactive counts per minute | incorporation of 3H thymidine ([4]; Peptide 0.3 micro g/ml): 611 radioactive counts per minute | incorporation of 3H thymidine ([4]; Peptide 1 micro g/ml): 472 radioactive counts per minute | incorporation of 3H thymidine ([4]; Peptide 3 micro g/ml): 455 radioactive counts per minute | incorporation of 3H thymidine ([4]; Peptide 10 micro g/ml): 405 radioactive counts per minute | relative activity in lowering intensity of HLA expression on WBC ([5]; 24 hours): more active than Rupe 414 | Density of cell surface expression of HLA Class I, rebased to 100 for control ([5]; B and NK cells, 24 hours): 73 | Percentage of cell population expressing HLA Class I, rebased to 100 for control ([5]; B and NK cells, 24 hours): 105 | Density of cell surface expression of HLA Class I, rebased to 100 for control ([5]; CD4 lymphocytes, 24 hours): 70 | Percentage of cell population expressing HLA Class I, rebased to 100 for control ([5]; CD4 lymphocytes, 24 hours): 104 | Density of cell surface expression of HLA Class I, rebased to 100 for control ([5]; CD8 lymphocytes, 24 hours): 72 | Percentage of cell population expressing HLA Class I, rebased to 100 for control ([5]; CD8 lymphocytes, 24 hours): 85 | Density of cell surface expression of HLA Class I, rebased to 100 for control ([5]; Granulocytes, 24 hours): 81 | Percentage of cell population expressing HLA Class I, rebased to 100 for control ([5]; Granulocytes, 24 hours): 98 | Percentage of cell population expressing HLA Class I, rebased to 100 for control ([5]; Monocytes/Macrophages, 24 hours): 119 | Density of cell surface expression of HLA Class I, rebased to 100 for control ([5]; Monocytes/Macrophages, 24 hours at 37° C.): 71 | Percent decrease in tumour volume relative to control [6, 13]: 61% | Percent decrease in tumour volume relative to control [6, 14]: 34% | Percent decrease in tumour volume relative to control ([6]; 0.1 Microg/mouse IP twice weekly, Day 15): 59% | Percent decrease in tumour volume relative to control [6, 15]: 67% | Percent decrease in tumour volume relative to control [6, 16]: 32% | Percent decrease in tumour volume relative to control ([6]; 1 Microg/mouse IP twice weekly, Day 15): 38% | Percent decrease in tumour volume relative to control [6, 17]: 63% | Percent decrease in tumour volume relative to control [6, 18]: 54% | Percent decrease in tumour volume relative to control ([6]; 10 Microg/mouse IP twice weekly, Day 15): 27% | histology of the tumours ([6]; both models (SM-322 and CUC-5)): non bleeding ulcerous destruction of the centre of tumours
